Results from patent US20250241926A1, “HETEROCYCLIC COMPOUNDS FOR USE IN THE TREATMENT OF CANCER” (ARTIOS PHARMA LIMITED, priority 2021, published 2025).

target: T1, Human Polθ polymerase domain (aa1820-2590) (Homo sapiens, UniProt O75417); assay: Polθ Polymerase Domain Kinact/Kl Assay (PicoGreen); format: biochemical; settings: covalent inhibitors, kobs vs [I] fit, 0.8 nM Polθ, 100 nM DNA substrate
T1 construct: Human Polθ polymerase domain (aa1820-2590) was expressed in E. Coli; made in house; host or cells: E. coli
T1 sequence (O75417 1820-2590): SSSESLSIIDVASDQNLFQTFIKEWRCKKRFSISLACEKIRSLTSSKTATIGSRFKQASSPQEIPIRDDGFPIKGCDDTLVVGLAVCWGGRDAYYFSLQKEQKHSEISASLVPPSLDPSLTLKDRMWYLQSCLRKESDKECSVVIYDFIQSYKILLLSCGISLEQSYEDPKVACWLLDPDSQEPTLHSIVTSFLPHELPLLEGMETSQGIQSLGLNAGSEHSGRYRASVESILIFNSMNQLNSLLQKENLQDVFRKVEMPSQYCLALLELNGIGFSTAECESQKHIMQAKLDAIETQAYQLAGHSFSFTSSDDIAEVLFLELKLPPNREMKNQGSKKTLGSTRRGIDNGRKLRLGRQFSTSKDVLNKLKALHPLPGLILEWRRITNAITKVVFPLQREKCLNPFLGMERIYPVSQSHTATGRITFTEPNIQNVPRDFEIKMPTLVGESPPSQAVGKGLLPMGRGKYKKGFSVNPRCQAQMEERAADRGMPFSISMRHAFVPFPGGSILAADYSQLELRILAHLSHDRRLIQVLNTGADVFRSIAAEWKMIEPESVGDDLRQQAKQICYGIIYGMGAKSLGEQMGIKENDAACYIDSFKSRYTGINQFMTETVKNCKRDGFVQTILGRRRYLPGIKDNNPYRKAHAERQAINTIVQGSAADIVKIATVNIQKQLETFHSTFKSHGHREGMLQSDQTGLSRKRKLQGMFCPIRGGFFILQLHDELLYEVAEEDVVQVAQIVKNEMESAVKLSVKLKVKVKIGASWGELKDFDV
Summary of the method: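 E. coli-expressed enzyme (0.8 nM final) was run with 100 nM annealed DNA substrate and dNTPs in Tris pH 7.5 buffer (1% DMSO), with EDTA stops across a time course up to 60 min. Synthesised DNA was read by PicoGreen fluorescence. kobs per inhibitor concentration was fitted from the time courses, and Kinact and KI came from the kobs-vs-[I] plot.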

Compared with “2-(((S)-6-(2-((S)-4-(1- Acryloylazetidin-3-yl)-2- methylpiperazin-1-yl)eth- yl)-7-fluoro-1-methyl-2- oxo-1,2,3,4,5,6-hexahydro- benzo[b][1,4]diazocin-3- yl)amino)-6-methyl-4- (trifluoromethyl)nicotino- nitrile [Example 14]”, `C=CC(=O)N1CCN(CC(O)CN2CC[C@H](Nc3nc(C)cc(C(F)(F)F)c3C#N)C(=O)N(C)c3ccc(F)cc32)CC1` (mixture of isomers) [Example 33A, 2-(((S)-6-((S/R)-3-(4-Acryloylpiperazin-1-yl)-2-hydroxypropyl)-8-fluoro-1-methyl-2-oxo-1,2,3,4,5,6-hexahydrobenzo[b][1,4]diazocin-3-yl)amino)-6-methyl-4-(trifluoromethyl)nicotinonitrile] is 5.2-fold lower in kinact/KI: 780000 M⁻¹ s⁻¹ for the first, 150000 M⁻¹ s⁻¹ for the second.

same assay, conditions: covalent inhibitors, kobs vs [I] fit, 0.8 nM Polθ, 100 nM DNA substrate, read-out: Kinact/KI

Going from `CO[C@H]1CN(C(=O)/C=C/CN(C)C)C[C@@H]1COCCN1CC[C@H](Nc2nc(C)cc(C(F)(F)F)c2C#N)C(=O)N(C)c2cccc(F)c21` (relative stereo) [Example 48, 2-(((S)-6-(2-(((rel-3R,4R)-1-((E)-4-(Dimethylamino)-but-2-enoyl)-4-methoxypyrroli-din-3-yl)methoxy)-ethyl)-7-fluoro-1-methyl-2-oxo-1,2,3,4,5,6-hexa-hydrobenzo[b] [1,4]diazocin-3-yl)amino)-6-meth-yl-4-(trifluoro-methyl)nicotino-nitrile] to `Cc1cc(C(F)(F)F)c(C#N)c(N[C@H]2CCN(CCN(C)C(=O)C3CN(C(=O)/C=C/CN(C)C)C3)c3c(F)cccc3N(C)C2=O)n1` [Example 29, (S,E)-N-(2-(4-((3-Cyano-6-methyl-4-(trifluoromethyl)pyridin-2-yl)amino)-10-fluoro-6-methyl-5-oxo-3,4,5,6-tetrahydrobenzo[b][1,4]diazocin-1(2H)-yl)ethyl)-1-(4-(dimethylamino)but-2-enoyl)-N-methylazetidine-3-carboxamide], the kinact/KI rises from 680000 M⁻¹ s⁻¹ to 1.2e+06 M⁻¹ s⁻¹ (1.8-fold).

Compared with `C=CC(=O)N1CC2(CN(CCN3CC[C@H](Nc4nc(C)cc(C(F)(F)F)c4C#N)C(=O)N(C)c4cccc(C)c43)CCN2)C1` [Example 69, (S)-2-((6-(2-(2-Acryloyl-2,5,8-triazaspiro[3.5]nonan-8-yl)ethyl)-1,7-dimethyl-2-oxo-1,2,3,4,5,6-hexahydrobenzo[b][1,4]diazocin-3-yl)amino)-6-methyl-4-(trifluoromethyl)nicotinonitrile], `C=CC(=O)N1CC2(CN(CCN3CC[C@H](Nc4nc(C)cc(C(F)(F)F)c4C#N)C(=O)N(C)c4cccc(F)c43)CCN2)C1` [Example 23, (S)-2-((6-(2-(2-Acryloyl-2,5,8-triazaspiro[3.5]nonan-8-yl)ethyl)-7-fluoro-1-methyl-2-oxo-1,2,3,4,5,6-hexahydrobenzo[b][1,4]diazocin-3-yl)amino)-6-methyl-4-(trifluoromethyl)nicotinonitrile] is 4.4-fold lower in kinact/KI: 4.1e+06 M⁻¹ s⁻¹ for the first, 940000 M⁻¹ s⁻¹ for the second.

Going from `Cc1cc(C(F)(F)F)c(C#N)c(N[C@H]2CCN(CCN3CCOC4(CCN(C(=O)/C=C/CN(C)C)C4)C3)c3c(F)cccc3N(C)C2=O)n1` (stereo partly drawn) [Example 2, 2-(((S)-6-(2-(2-((E)-4-(Dimethylamino)but-2-enoyl)-6-oxa-2,9-diazaspiro[4.5]decan-9-yl)ethyl)-7-fluoro-1-methyl-2-oxo-1,2,3,4,5,6-hexahydrobenzo[b][1,4]diazocin-3-yl)amino)-6-methyl-4-(trifluoromethyl)nicotinonitrile] to `Cc1cc(C(F)(F)F)c(C#N)c(N[C@H]2CCN(CCN3CCOC4(C3)CN(C(=O)/C=C/CN(C)C)C4)c3ccccc3N(C)C2=O)n1` [Example 3, (S,E)-2-((6-(2-(2-(4-(Dimethylamino)but-2-enoyl)-5-oxa-2,8-diazaspiro[3.5]nonan-8-yl)ethyl)-1-methyl-2-oxo-1,2,3,4,5,6-hexahydrobenzo[b][1,4]diazocin-3-yl)amino)-6-methyl-4-(trifluoromethyl)nicotinonitrile], the kinact/KI rises from 510000 M⁻¹ s⁻¹ to 1.1e+06 M⁻¹ s⁻¹ (2.2-fold).

Going from `Cc1cc(C(F)(F)F)c(C#N)c(N[C@H]2CCN(C[C@@H]3CN(C4CN(C(=O)/C=C/CN(C)C)C4)CCO3)c3c(F)cccc3N(C)C2=O)n1` [Example 59, 2-(((S)-6-(((S)-4-(1-((E)-4-(Dimethylamino)but-2-enoyl)azetidin-3-yl)morpholin-2-yl)methyl)-7-fluoro-1-methyl-2-oxo-1,2,3,4,5,6-hexahydrobenzo[b][1,4]diazocin-3-yl)amino)-6-methyl-4-(trifluoromethyl)nicotinonitrile] to `Cc1cc(C(F)(F)F)c(C#N)c(N[C@H]2CCN(CCCOC3CN(C(=O)/C=C/[C@@H]4CCCN4C)C3)c3c(F)cccc3N(C)C2=O)n1` [Example 54, 2-(((S)-7-Fluoro-1-methyl-6-(3-((1-((E)-3-((S)-1-methylpyrrolidin-2-yl)acryloyl)azetidin-3-yl)oxy)propyl)-2-oxo-1,2,3,4,5,6-hexahydrobenzo[b][1,4]diazocin-3-yl)amino)-6-methyl-4-(trifluoromethyl)nicotinonitrile], the kinact/KI rises from 120000 M⁻¹ s⁻¹ to 700000 M⁻¹ s⁻¹ (5.8-fold).

First: Cc1cc(C(F)(F)F)c(C#N)c(N[C@H]2CCN(CCN(C)C(=O)C3CN(C(=O)/C=C/CN(C)C)C3)c3ccccc3N(C)C2=O)n1 [Example 31, (S,E)-N-(2-(4-((3-Cyano-6-methyl-4-(trifluoromethyl)pyridin-2-yl)amino)-6-methyl-5-oxo-3,4,5,6-tetrahydrobenzo[b][1,4]diazocin-1(2H)-yl)ethyl)-1-(4-(dimethylamino)but-2-enoyl)-N-methylazetidine-3-carboxamide]
Second: C=CC(=O)N1CC(N2CCN(CCN3CC[C@H](Nc4nc(C)cc(C(F)(F)F)c4C#N)C(=O)N(C)c4ccccc43)CC2)C1 [Example 20, (S)-2-((6-(2-(4-(1-Acrylo-ylazetidin-3-yl)piperazin-1-yl)ethyl)-1-methyl-2-oxo-1,2,3,4,5,6-hexa-hydrobenzo[b][1,4]diazocin-3-yl)amino)-6-methyl-4-(trifluorometh-yl)nicotinonitrile]
The kinact/KI of the first is 1.8-fold higher: 920000 M⁻¹ s⁻¹ for the first, 500000 M⁻¹ s⁻¹ for the second.

Going from `C=CC(=O)N1CC(n2cnc(CN3CC[C@H](Nc4nc(C)cc(C(F)(F)F)c4C#N)C(=O)N(C)c4cccc(F)c43)n2)C1` [Example 66, (S)-2-((6-((1-(1-Acryloylazetidin-3-yl)-1H-1,2,4-triazol-3-yl)methyl)-7-fluoro-1-methyl-2-oxo-1,2,3,4,5,6-hexahydrobenzo[b][1,4]diazocin-3-yl)amino)-6-methyl-4-(trifluoromethyl)nicotinonitrile] to `C=CC(=O)N1CC2(CN(CCN3CC[C@H](Nc4nc(C)cc(C(F)(F)F)c4C#N)C(=O)N(C)c4cccc(F)c43)C[C@@H](C)N2)C1` [Example 63, 2-(((S)-6-(2-((R)-2-Acryloyl-6-methyl-2,5,8-triazaspiro[3.5]nonan-8-yl)ethyl)-7-fluoro-1-methyl-2-oxo-1,2,3,4,5,6-hexahydrobenzo[b][1,4]diazocin-3-yl)amino)-6-methyl-4-(trifluoromethyl)nicotinonitrile], the kinact/KI falls from 2.4e+06 M⁻¹ s⁻¹ to 860000 M⁻¹ s⁻¹ (2.8-fold).

`C=CC(=O)N1CC2(CN(CCN3CC[C@H](Nc4nc(C)cc(C(F)(F)F)c4C#N)C(=O)N(C)c4ccccc43)C2)C1` [Example 22, (S)-2-((6-(2-(6-Acryloyl-2,6-diazaspiro[3.3]heptan-2-yl)ethyl)-1-methyl-2-oxo-1,2,3,4,5,6-hexa-hydrobenzo[b][1,4]diazocin-3-yl)amino)-6-methyl-4-(trifluorometh-yl)nicotinonitrile] and `C=CC(=O)N1CC2(CN(CC(O)CN3CC[C@H](Nc4nc(C)cc(C(F)(F)F)c4C#N)C(=O)N(C)c4ccccc43)C2)C1` (stereo partly drawn) [Example 36, 2-(((3S)-6-(3-(6-Acryloyl-2,6-diazaspiro[3.3]heptan-2-yl)-2-hydroxypropyl)-1-methyl-2-oxo-1,2,3,4,5,6-hexahydrobenzo[b][1,4]diazocin-3-yl)amino)-6-methyl-4-(trifluoromethyl)nicotinonitrile] are within 1.5-fold of each other in kinact/KI: 500000 M⁻¹ s⁻¹ for the first, 360000 M⁻¹ s⁻¹ for the second.

`C=CC(=O)N1CC2(CN(CCN3CC[C@H](Nc4nc(C)cc(C(F)(F)F)c4C#N)C(=O)N(C)c4cccc(F)c43)CCN2C)C1` [Example 6, (S)-2-((6-(2-(2-Acryloyl-5-methyl-2,5,8-triazaspiro[3.5]nonan-8-yl)ethyl)-7-fluoro-1-methyl-2-oxo-1,2,3,4,5,6-hexahydrobenzo[b][1,4]diazocin-3-yl)amino)-6-methyl-4-(trifluoromethyl)nicotinonitrile] and `C=CC(=O)N1CC2(CN(CCN3CC[C@H](Nc4nc(C)cc(C(F)(F)F)c4C#N)C(=O)N(C)c4cccc(F)c43)CCN2C(C)=O)C1` [Example 71, (S)-2-((6-(2-(5-Acetyl-2-acryloyl-2,5,8-triazaspiro[3.5]nonan-8-yl)ethyl)-7-fluoro-1-methyl-2-oxo-1,2,3,4,5,6-hexahydrobenzo[b][1,4]diazocin-3-yl)amino)-6-methyl-4-(trifluoromethyl)nicotinonitrile] are within 1.5-fold of each other in kinact/KI: 980000 M⁻¹ s⁻¹ for the first, 1.4e+06 M⁻¹ s⁻¹ for the second.
